From ChEMBL document CHEMBL1201862, “PubChem BioAssay data set” (2004)
Activity calls are given as the source filed them.

How the values were obtained:
[1] = loss of viability in HepG2 cells – cell-based, CellTiter-Glo, cherry-picked, cytotoxicity control for Shn3 inhibitor project, dose response (AID 624134); format: functional
[2] = viability loss in Vero cells – cytotoxicity control for Vif-APOBEC3G degradation inhibitor project, dose response (AID 1117358); format: functional; details: Vero
[3] = reduction of Shn3 3'UTR-driven luciferase in osteoblasts – cell-based, Clone20 osteoblasts, firefly luciferase, cherry-picked, dose response (AID 624132); format: functional;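 also: firefly luciferase luminescence from reporter carrying the Shn3 3'UTR in osteoblasts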
[4] = target: T1, Microphthalmia-associated transcription factor (Homo sapiens, UniProt O75030); experiment: reducers of TRPM1 reporter luminescence, concentration series – cell-based, SK-MEL-5, cherry-picked, set 3, MITF inhibitor project, dose response (AID 493073); format: functional;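 also: SK-MEL-5 melanoma cells with luciferase driven by the MITF target TRPM1 promoter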
T1 sequence (O75030 whole entry): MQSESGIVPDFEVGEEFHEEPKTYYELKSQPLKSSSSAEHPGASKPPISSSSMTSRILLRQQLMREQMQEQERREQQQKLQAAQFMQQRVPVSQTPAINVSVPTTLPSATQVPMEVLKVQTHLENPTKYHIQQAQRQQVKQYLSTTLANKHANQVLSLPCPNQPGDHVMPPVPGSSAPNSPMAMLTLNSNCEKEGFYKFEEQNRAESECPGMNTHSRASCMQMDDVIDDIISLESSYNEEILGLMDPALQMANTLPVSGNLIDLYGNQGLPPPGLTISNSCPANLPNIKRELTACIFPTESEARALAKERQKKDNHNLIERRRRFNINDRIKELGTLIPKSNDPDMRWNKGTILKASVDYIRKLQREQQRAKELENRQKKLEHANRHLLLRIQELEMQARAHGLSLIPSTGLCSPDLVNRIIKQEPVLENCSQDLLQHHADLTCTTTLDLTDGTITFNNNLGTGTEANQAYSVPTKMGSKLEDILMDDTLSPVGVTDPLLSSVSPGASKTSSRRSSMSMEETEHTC

[5] = non-specific 3'UTR reporter inhibition in Clone20-Shn3RL – cell-based, Renilla luciferase, cherry-picked, counter-screen for Shn3 inhibitor project, dose response (AID 624133); format: functional
A-375 = experiment: MITF: Counter assay: A375 proliferation Measured in Cell-Based System Using Plate Reader - 2084-03_Inhibitor_Dose_DryPowder_Activity. [Related pubchem assays (depositor defined):AID488944]; format: functional; details: Homo sapiens
[6] = target: Ubiquitin carboxyl-terminal hydrolase BAP1 (Homo sapiens, UniProt Q92560); experiment: inhibition of BAP1 ubiquitin hydrolase activity – biochemical, dose response (AID 714); format: functional
Streptokinase A = target: T2, Streptokinase A (Streptococcus pyogenes serotype M1, UniProt P10520); experiment: viability-normalized secreted streptokinase activity reduction – plasminogen activation absorbance, OD405, dose response (AID 1914); format: functional, Streptococcus pyogenes M1 GAS;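 also: secreted streptokinase activity via plasminogen activation per viability signal from cell pellet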
T2 sequence (P10520 whole entry): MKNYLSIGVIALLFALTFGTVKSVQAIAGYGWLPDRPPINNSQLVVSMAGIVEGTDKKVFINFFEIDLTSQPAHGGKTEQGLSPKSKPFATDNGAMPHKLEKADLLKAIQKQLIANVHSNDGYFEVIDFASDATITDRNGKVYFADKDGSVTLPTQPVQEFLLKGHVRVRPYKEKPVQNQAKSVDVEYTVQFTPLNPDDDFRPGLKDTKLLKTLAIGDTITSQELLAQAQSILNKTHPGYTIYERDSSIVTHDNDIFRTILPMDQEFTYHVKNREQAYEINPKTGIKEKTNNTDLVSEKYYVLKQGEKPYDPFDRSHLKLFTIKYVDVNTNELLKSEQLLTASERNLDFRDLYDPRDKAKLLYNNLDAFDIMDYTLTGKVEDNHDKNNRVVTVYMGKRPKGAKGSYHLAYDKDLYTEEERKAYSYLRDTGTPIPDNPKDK

[7] = test system: Streptococcus sp. 'group A'; experiment: Streptococcus pyogenes SK(-)GAS viability under kanamycin – luminescence, BacTiterGlo, confirmation, counter-screen for streptokinase expression inhibitor project, dose response (AID 1900); format: functional, organism-based
Caspase-6 = Caspase-6 (Homo sapiens, UniProt P55212); experiment: inhibition of CASP6 peptide cleavage – biochemical, VEID-R110 fluorescence, cherry-pick, dose response (AID 720632)
Streptococcus = experiment: GAS UMAA2166 growth inhibition – luminescence, BacTiterGlo, counter-screen for streptokinase expression inhibitor project, dose response (AID 1915); format: functional, organism-based;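 also: potency for reduction of bacterial viability or growth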
[8] = target: Sphingosine 1-phosphate receptor 2 (Homo sapiens, UniProt O95136); experiment: Dose Response Cell Based Assay for Agonists of the S1P2 Receptor. [Related pubchem assays: 729, 736, 843 ]; format: functional
[9] = Late stage counterscreen for inhibitors of Trypanosoma brucei methionyl tRNA synthetase (MetRS): Luminescence-based cell-based high throughput dose response assay to identify compounds that are cytotoxic to Jurkat human T lymphocyte cells.; format: functional
[10] = Counterscreen for inhibitors of Trypanosoma brucei methionyl tRNA synthetase (MetRS): Luminescence-based cell-based high throughput dose response assay to identify compounds that are cytotoxic to Jurkat human T lymphocyte cells.; format: functional
[11] = target: T3, Methionyl-tRNA synthetase, putative (Trypanosoma brucei brucei, UniProt Q38C91); format: functional, Trypanosoma brucei brucei strain 927/4 GUTat10.1
[12] = target: T3, Methionyl-tRNA synthetase, putative; format: functional, Trypanosoma brucei brucei strain 927/4 GUTat10.1; remark: listed apart in the source
Transthyretin = Transthyretin (Homo sapiens, UniProt P02766); experiment: Luminescence-based cell-based high throughput dose response assay to identify activators of Transthyretin (TTR) transcription.; format: functional
[13] = target: T4, Oxysterols receptor LXR-beta (Homo sapiens, UniProt P55055); format: functional, cell-based;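 also: Cell-based luminescence dose-response assay of agonist activity at LXR, run as a confirmatory counterscreen to a daf-12 agonist screen; HEK293 cells with Gal4-LXR fusion and GAL4-driven luciferase reporter; agonist potency from rising luciferase signal of a Gal4-LXR reporter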
T4 sequence (P55055 whole entry): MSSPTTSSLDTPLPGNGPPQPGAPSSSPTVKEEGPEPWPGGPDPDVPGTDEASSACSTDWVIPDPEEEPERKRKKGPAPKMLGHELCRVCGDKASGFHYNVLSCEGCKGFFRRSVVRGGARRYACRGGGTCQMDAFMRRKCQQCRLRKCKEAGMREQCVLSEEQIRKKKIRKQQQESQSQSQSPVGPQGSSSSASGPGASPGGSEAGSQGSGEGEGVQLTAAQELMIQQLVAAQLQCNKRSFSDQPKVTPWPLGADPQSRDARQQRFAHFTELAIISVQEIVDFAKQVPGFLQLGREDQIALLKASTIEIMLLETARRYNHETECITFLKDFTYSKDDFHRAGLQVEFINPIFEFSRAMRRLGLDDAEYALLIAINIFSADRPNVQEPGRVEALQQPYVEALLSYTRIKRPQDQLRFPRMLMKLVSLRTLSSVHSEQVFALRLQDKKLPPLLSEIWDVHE

T3 sequence (Q38C91 whole entry): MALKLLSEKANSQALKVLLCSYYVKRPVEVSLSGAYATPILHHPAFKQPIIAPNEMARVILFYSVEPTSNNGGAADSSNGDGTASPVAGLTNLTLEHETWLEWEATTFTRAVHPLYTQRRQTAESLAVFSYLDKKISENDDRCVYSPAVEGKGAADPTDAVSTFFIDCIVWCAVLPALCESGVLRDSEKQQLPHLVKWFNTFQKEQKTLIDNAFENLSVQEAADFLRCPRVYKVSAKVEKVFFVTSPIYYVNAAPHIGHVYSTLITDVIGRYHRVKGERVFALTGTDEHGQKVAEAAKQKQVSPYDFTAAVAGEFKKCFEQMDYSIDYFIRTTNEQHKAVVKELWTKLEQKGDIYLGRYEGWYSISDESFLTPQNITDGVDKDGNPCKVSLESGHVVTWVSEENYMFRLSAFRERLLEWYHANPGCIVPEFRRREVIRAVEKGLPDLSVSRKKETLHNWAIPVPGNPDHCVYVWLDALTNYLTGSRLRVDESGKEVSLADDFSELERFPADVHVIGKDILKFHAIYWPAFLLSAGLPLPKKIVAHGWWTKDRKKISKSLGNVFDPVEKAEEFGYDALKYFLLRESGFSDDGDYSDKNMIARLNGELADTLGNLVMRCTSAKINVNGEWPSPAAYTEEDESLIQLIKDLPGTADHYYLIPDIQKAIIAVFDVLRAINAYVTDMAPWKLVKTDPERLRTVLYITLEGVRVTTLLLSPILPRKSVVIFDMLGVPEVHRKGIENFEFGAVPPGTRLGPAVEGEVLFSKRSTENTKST
Sequence of Sphingosine 1-phosphate receptor 2 (O95136 whole entry): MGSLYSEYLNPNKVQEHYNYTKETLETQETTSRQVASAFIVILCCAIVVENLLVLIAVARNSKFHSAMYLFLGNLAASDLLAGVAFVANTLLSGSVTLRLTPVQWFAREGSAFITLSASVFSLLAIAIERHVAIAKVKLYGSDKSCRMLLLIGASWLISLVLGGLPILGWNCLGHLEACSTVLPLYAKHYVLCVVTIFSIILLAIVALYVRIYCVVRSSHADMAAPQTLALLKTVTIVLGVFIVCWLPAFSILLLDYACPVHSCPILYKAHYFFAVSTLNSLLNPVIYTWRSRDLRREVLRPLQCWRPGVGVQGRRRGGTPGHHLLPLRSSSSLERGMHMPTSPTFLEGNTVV
Sequence of Ubiquitin carboxyl-terminal hydrolase BAP1 (Q92560 whole entry): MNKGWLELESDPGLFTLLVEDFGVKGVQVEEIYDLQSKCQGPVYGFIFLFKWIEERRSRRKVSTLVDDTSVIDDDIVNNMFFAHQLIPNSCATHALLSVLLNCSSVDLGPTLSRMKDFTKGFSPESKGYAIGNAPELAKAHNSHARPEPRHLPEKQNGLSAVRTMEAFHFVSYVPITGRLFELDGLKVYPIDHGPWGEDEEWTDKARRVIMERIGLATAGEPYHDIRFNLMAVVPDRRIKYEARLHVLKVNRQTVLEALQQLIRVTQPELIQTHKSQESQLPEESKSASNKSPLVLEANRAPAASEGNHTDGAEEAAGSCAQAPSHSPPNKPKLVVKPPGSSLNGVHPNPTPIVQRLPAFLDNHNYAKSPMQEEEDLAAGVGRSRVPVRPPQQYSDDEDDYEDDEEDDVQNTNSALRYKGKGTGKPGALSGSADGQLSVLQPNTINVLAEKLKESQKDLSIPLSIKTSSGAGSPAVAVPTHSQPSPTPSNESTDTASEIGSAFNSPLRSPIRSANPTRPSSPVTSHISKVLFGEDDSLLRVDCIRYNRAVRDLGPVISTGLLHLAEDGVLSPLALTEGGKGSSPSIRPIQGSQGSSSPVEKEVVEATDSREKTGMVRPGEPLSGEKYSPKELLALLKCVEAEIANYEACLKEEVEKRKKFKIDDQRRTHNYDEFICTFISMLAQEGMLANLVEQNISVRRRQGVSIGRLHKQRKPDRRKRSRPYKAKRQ
Sequence of Caspase-6 (P55212 24-179 limits assumed): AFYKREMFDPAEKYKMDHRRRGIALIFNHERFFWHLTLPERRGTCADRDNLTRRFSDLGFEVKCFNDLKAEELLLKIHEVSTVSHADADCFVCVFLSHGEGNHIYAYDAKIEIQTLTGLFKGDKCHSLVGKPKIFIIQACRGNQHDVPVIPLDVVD
Sequence of Caspase-6 (P55212 194-293 limits assumed): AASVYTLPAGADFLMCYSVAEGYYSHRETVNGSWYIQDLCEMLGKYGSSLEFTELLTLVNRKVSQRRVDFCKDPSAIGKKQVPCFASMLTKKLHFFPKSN

In the case of `COc1cccc(CNCCc2c[nH]c3ccccc23)c1OCc1ccccc1`, the AC50 [1] was 11.8 µM (active), the CC50 [2] was > 40 µM (active) and the AC50 [3] was 4.09 µM (active). The AC50 [4] was 14.4 µM (active), the AC50 [5] was 9.39 µM (active) and the AC50 (A-375) was 36.2 µM (active).

For `O=c1[nH]c(SCc2ccc(F)cc2)nc2c1cnn2-c1ccc(F)cc1`, the IC50 [6] was > 50 µM (not active).

With `Oc1ccc(Cl)cc1CNc1cccc2cccnc12` the EC50 (Streptokinase A) was > 150 µM (not active), the EC50 [7] was 23.9 µM (active) and the AC50 (Caspase-6) was 48.4 µM (active). The EC50 (Streptococcus) was > 150 µM (not active).

In the case of `CC(C)CCNC(=O)c1c(N)n(Cc2ccc3c(c2)OCO3)c2nc3ccccc3nc12`, the EC50 [8] was 1.69 µM (active).

With `COc1ccccc1NS(=O)(=O)c1cccc(NC(=O)Nc2ccccc2)c1` the IC50 [9] was 64.2 µM (inactive), the IC50 [10] was 48.8 µM (inactive) and the IC50 [11] was 0.644 µM (active). For the same compound, the IC50 [12] was 1.27 µM (active).

For `N=c1ccn(CC(=O)NC(N)=O)c2ccccc12`, the EC50 (Transthyretin) was > 167 µM (inactive).

For `Cc1csc(SCC(=O)Nc2sccc2C#N)n1`, the EC50 (cells) was > 67.6 µM (inactive) and the EC50 [13] was > 67.6 µM (inactive).
